Experiments:
[1] = test system: pho operon genes in S. meliloti cells; assay: Quantitative RT-PCR analysis of pho operon genes; format: cell-based; conditions: compounds 0.5 mM, 3 hours
Description: FIG. S1. Quantitative RT-PCR analysis of pho operon genes in S. meliloti cells under P-sufficient conditions (13 mM K-phosphate). The relative expression level was >1 for genes more highly expressed in RD64 and in 1021 cells treated for 3 hours with 0.5 mM IAA, Ind, Trp, ICA and 2,4-D. The relative expression level was <1 for genes more highly expressed in 1021 cells (control). Error bars represent the standard deviation from three independent biological experiments.
FIG. 1. Quantitative RT-PCR analysis of pho operon genes expression in S. meliloti cells under P-starving conditions. The relative expression level was >1 for genes more highly expressed in RD64 and in 1021 cells treated for 3 hours with 0.5 mM IAA, Ind, Trp, ICA and 2,4-D. The relative expression level was <1 for genes more highly expressed in 1021 cells (control). Error bars represent the standard deviation from five independent biological experiments (p<0.05).
Total RNA from P-sufficient and P-starved cells was isolated as previously described (5). cDNA were synthesized with the StrataScript™ reverse transcription reagents (Stratagene) and random hexamers as primers. Quantitative PCR was performed with the Power SYBR PCR Master Mix (Applied Biosystems). Reactions were run on the iCycler iQ (Bio-Rad). The thermo cycling condition were: 15 min at 95° C., 40 cycles of denaturation at 95° C. for 20 s, annealing (20 s) and extension (35 s) at 72° C. Specific primer pairs, designed using the Primer3 software, are shown.
smc02641 and smc00128 were used as housekeeping genes for data normalization in the comparative Ct method as previously described (8). Phosphatase Activity

S. meliloti 1021 = assay: Microarray gene expression of 1021 cells treated with 0.5 mM compound; conditions: P-sufficient (13 mM);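 note: cells were harvested 3 h after the start of each treatment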
Description: For P starvation experiments, cells of 1021 wild-type and RD64 strains were grown at 30° C. to mid exponential phase (OD600=0.6) in RMM broth containing 1% (w/v) mannitol as carbon source and 13 mM P, washed with RMM containing 0 P, resuspended in the same medium and then divided into three cultures. No P (−P), 1.0 mM P (P-starved cells) or 13 mM P (+P cells also named P-sufficient cells) was added into the three cultures, respectively. The P-starved and P-sufficient 1021 wild type cells were treated for 3.0 hours with 0.5 mM IAA. […] To rule out that this bacteria could be partially starved for Trp, RD64 cells were also treated with 0.5 mM Trp and used for microarrays and RT-PCR analyses. […] After 3 hours of each treatment, cell batches were collected, freezed and stored at −80° C. for use in experiments.

acid phosphatase = assay: Acid phosphatase activity under P-starved conditions; format: cell-based, S. meliloti; conditions: phosphate starvation; vs 1021 cells; compounds 0.5 mM, 3 hours at 30° C.
alkaline phosphatase = conditions: phosphate starvation; vs 1021 cells; compounds 0.5 mM, 3 hours at 30° C.
Description: Acid (A) and alkaline (B) phosphatase activity in S. meliloti cells under P-starved conditions. Log-phase cells grown in a MOPS-buffered minimal medium (starting P concentration=13 mM) were washed and then resuspended in the same medium containing no added P (1021 and RD64 strains) and 0.5 mM IAA, Trp or Ind (1021 strain). Treatments were performed for 3 hours at 30° C.
Alkaline and acid phophatase enzymes under P-limiting conditions were assayed as previously reported (16). Units are reported as nanomoles per minute per milligram of protein. Protein concentrations were determined by the Bradford's assay.

[2] = 1021 + 0.5 mM ICA vs untreated 1021
[3] = 1021 + 0.5 mM Indole vs untreated 1021

In the case of `O=C(O)c1c[nH]c2ccccc12` [ICA, indole-3-carboxylic acid], the “phoB regulatory gene expression (qRT-PCR)” value ([1]; P-sufficient (13 mM K-phosphate), vs untreated 1021 cells) is reported as “unaffected”, the “M (log2 ratio of intensities) SMa1077 nex18” value (S. meliloti 1021; [2]) is reported as 0.9938 and the “M (log2 ratio of intensities) SMa1118 hspC2” value (S. meliloti 1021; [2]) is reported as 1.111. For the same compound, the “M (log2 ratio of intensities) SMa1128 degP4” value (S. meliloti 1021; [2]) was 1.148, the “M (log2 ratio of intensities) SMa1306 virB9” value (S. meliloti 1021; [2]) was 0.9404 and the “M (log2 ratio of intensities) SMb21183 htpG” value (S. meliloti 1021; [2]) was 0.7619. The “M (log2 ratio of intensities) SMc00323 rpsO” value (S. meliloti 1021; [2]) was −0.722, the “M (log2 ratio of intensities) SMc00335 rpsA” value (S. meliloti 1021; [2]) was −0.7763 and the “M (log2 ratio of intensities) SMc00514 smc00514” value (S. meliloti 1021; [2]) was 0.8721. For the same compound, the “M (log2 ratio of intensities) SMc00537 smc00537” value (S. meliloti 1021; [2]) was 0.9583, the “M (log2 ratio of intensities) SMc00868 atpF” value (S. meliloti 1021; [2]) was −0.8306 and the “M (log2 ratio of intensities) SMc00912 groES1” value (S. meliloti 1021; [2]) was −1.491. For the same compound, the “M (log2 ratio of intensities) SMc00913 groEL1” value (S. meliloti 1021; [2]) was −0.8349, the “M (log2 ratio of intensities) SMc01169 ald” value (S. meliloti 1021; [2]) was 1.71 and the “M (log2 ratio of intensities) SMc01309 rplC” value (S. meliloti 1021; [2]) was −0.7558. For the same compound, the “M (log2 ratio of intensities) SMc01326 tufB” value (S. meliloti 1021; [2]) was −0.8768, the “M (log2 ratio of intensities) SMc01534 smc01534” value (S. meliloti 1021; [2]) was 0.9277 and the “M (log2 ratio of intensities) SMc01793 smc01793” value (S. meliloti 1021; [2]) was −0.7625. For the same compound, the “M (log2 ratio of intensities) SMc02498 atpH” value (S. meliloti 1021; [2]) was −0.7281, the “M (log2 ratio of intensities) SMc02603 smc02603” value (S. meliloti 1021; [2]) was 1.484 and the “M (log2 ratio of intensities) SMc03030 flgG” value (S. meliloti 1021; [2]) was −0.7501. The “M (log2 ratio of intensities) SMc03037 flaA” value (S. meliloti 1021; [2]) was −0.7114, the “M (log2 ratio of intensities) SMc03168 smc03168” value (S. meliloti 1021; [2]) was 1.005 and the “M (log2 ratio of intensities) SMc03253 smc03253” value (S. meliloti 1021; [2]) was 1.14. For the same compound, the “M (log2 ratio of intensities) SMc03829 smc03829” value (S. meliloti 1021; [2]) was 0.9065, the “M (log2 ratio of intensities) SMc04040 ibpA” value (S. meliloti 1021; [2]) was 1.474 and the “M (log2 ratio of intensities) SMc04114 pilA1” value (S. meliloti 1021; [2]) was −0.7274. For the same compound, the “M (log2 ratio of intensities) SMc04140 smc04140” value (S. meliloti 1021; [2]) was 1.126, the “M (log2 ratio of intensities) SMc04307 cyaD2” value (S. meliloti 1021; [2]) was 1.012 and the “pho genes among those significantly affected (microarray)” value (S. meliloti 1021; 1021 + 0.5 mM compound vs untreated 1021) was “did not find any pho genes”.

For `c1ccc2[nH]ccc2c1` [Indole, indole], the “expression level of all five pho genes (RT-PCR)” value ([1]; P-starved conditions, vs control 1021) was “only slightly induced or unchanged”, the acid phosphatase activity (acid phosphatase) was “unaffected, or only slightly increased” and the alkaline phosphatase activity (alkaline phosphatase) was “unaffected, or only slightly increased”. The “M (log2 ratio of intensities) SMa1077 nex18” value (S. meliloti 1021; [3]) was 0.7413, the “M (log2 ratio of intensities) SMa1087 sma1087” value (S. meliloti 1021; [3]) was 0.7199 and the “M (log2 ratio of intensities) SMa1128 degP4” value (S. meliloti 1021; [3]) was 1.152. The “M (log2 ratio of intensities) SMa1329 sma1329” value (S. meliloti 1021; [3]) was 1.658, the “M (log2 ratio of intensities) SMb21177 phoC” value (S. meliloti 1021; [3]) was 1.282 and the “M (log2 ratio of intensities) SMb21183 htpG” value (S. meliloti 1021; [3]) was 0.9544. For the same compound, the “M (log2 ratio of intensities) SMc00182 smc00182” value (S. meliloti 1021; [3]) was −0.9429, the “M (log2 ratio of intensities) SMc00335 rpsA” value (S. meliloti 1021; [3]) was −0.7083 and the “M (log2 ratio of intensities) SMc00364 rplT” value (S. meliloti 1021; [3]) was −1.373. For the same compound, the “M (log2 ratio of intensities) SMc00383 gst3” value (S. meliloti 1021; [3]) was −0.7478, the “M (log2 ratio of intensities) SMc01106 smc01106” value (S. meliloti 1021; [3]) was 1.513 and the “M (log2 ratio of intensities) SMc01291 rpmD” value (S. meliloti 1021; [3]) was −1.485. The “M (log2 ratio of intensities) SMc01308 rplD” value (S. meliloti 1021; [3]) was −1.252, the “M (log2 ratio of intensities) SMc01311 tufA” value (S. meliloti 1021; [3]) was −0.711 and the “M (log2 ratio of intensities) SMc01312 fusA1” value (S. meliloti 1021; [3]) was 0.9128. The “M (log2 ratio of intensities) SMc01318 rplL” value (S. meliloti 1021; [3]) was −0.7037, the “M (log2 ratio of intensities) SMc01946 livK” value (S. meliloti 1021; [3]) was −1.077 and the “M (log2 ratio of intensities) SMc02501 atpD” value (S. meliloti 1021; [3]) was −1.405. For the same compound, the “M (log2 ratio of intensities) SMc02857 dnaK” value (S. meliloti 1021; [3]) was 0.7321, the “M (log2 ratio of intensities) SMc03159 smc03159” value (S. meliloti 1021; [3]) was −0.938 and the “M (log2 ratio of intensities) SMc03167 smc03167” value (S. meliloti 1021; [3]) was 0.7656. For the same compound, the “M (log2 ratio of intensities) SMc03253 smc03253” value (S. meliloti 1021; [3]) was 1.951, the “M (log2 ratio of intensities) SMc03829 smc03829” value (S. meliloti 1021; [3]) was 0.8604 and the “M (log2 ratio of intensities) SMc04040 ibpA” value (S. meliloti 1021; [3]) was 2.449. The “M (log2 ratio of intensities) SMc04087 smc04087” value (S. meliloti 1021; [3]) was 1.944, the “M (log2 ratio of intensities) SMc04114 pilA1” value (S. meliloti 1021; [3]) was −1.888 and the “M (log2 ratio of intensities) SMc04140 smc04140” value (S. meliloti 1021; [3]) was 1.411. The “M (log2 ratio of intensities) SMc04141 gst9” value (S. meliloti 1021; [3]) was 1.708.

From US9157104B2, “Method to improve phosphate solubilization in plants” (Consiglio Nazionale delle Ricerche, priority 2009, dated 2015)
